Measurements as given in patent publication US20080214552A1, “Substituted Pyridazinecarboxamides and Derivatives Thereof” (priority 2004, published 2008).

Columns and labels:
[1] = log P determination by HPLC on reverse-phase column (EEC directive 79/831 Annex V.A8); type: physicochemical; conditions: reverse-phase C18 HPLC column, acidic range (pH 2.3), 0.1% aqueous phosphoric acid/acetonitrile, 43° C.
Method: The log P values given in the table were determined in accordance with EEC directive 79/831 Annex V.A8 by HPLC (High Performance Liquid Chromatography) on a reverse-phase column (C 18). Temperature: 43° C. (a) Mobile phases for the determination in the acidic range (pH 2.3): 0.1% aqueous phosphoric acid, acetonitrile; linear gradient from 10% acetonitrile to 90% acetonitrile—the corresponding measurement results in table 1 are marked a). Calibration was carried out using unbranched alkan-2-ones (having 3 to 16 carbon atoms) with known log P values (determination of the log P values by the retention times using linear inter-polation between two successive alkanones).

[2] = test system: caterpillars of the armyworm (Spodoptera frugiperda); experiment: Spodoptera frugiperda test (spray treatment); type: in vivo; conditions: 500 g/ha, spray treatment of corn leaf disks
Method: (§1) To produce a suitable preparation of active compound, 1 part by weight of active compound is mixed with the stated amounts of solvents and emulsifier, and the concentrate is diluted with emulsifier-containing water to the desired concentration. Disks of corn leaves (Zea mays) are sprayed with a preparation of active compound of the desired concentration and, after drying, populated with caterpillars of the armyworm (Spodoptera frugiperda). After the desired period of time, the effect in % is determined. 100% means that all caterpillars have been killed; 0% means that none of the caterpillars have been killed.

[3] = test system: larvae of the mustard beetle (Phaedon cochleariae); experiment: Phaedon test (spray treatment); type: in vivo; conditions: 500 g/ha, spray treatment of Chinese cabbage disks
Method: as §1, with “of Chinese cabbage (Brassica pekinensis)” for “of corn leaves (Zea mays)”, “with larvae” for “with caterpillars”, “the mustard beetle (Phaedon cochleariae).” for “the armyworm (Spodoptera frugiperda).”, “all beetle larvae” for “all caterpillars”, “the beetle larvae” for “the caterpillars”

SMILES | chromatographic logP [1] | Kill rate in % after 7 d [2] | Kill rate in % after 7 d [3]
N#CCNC(=O)c1cnncc1C(F)(F)F [Example 1, N-cyanomethyl-5-trifluoromethylpyridazine-4-carboxamide] | 0.6 | – | –
O=C(NC(c1ccccc1)c1ccccn1)c1cnncc1C(F)(F)F (stereo not shown) [Ia-59] | – | 100% | 100%
COC(=O)c1cnncc1C(F)(F)F [methyl 5-trifluoromethylpyridazine-4-carboxylate] | 1.68 | – | –
